Results from patent US10894798B2, “Substituted dihydropyrrolopyrazole derivative” (UBE INDUSTRIES, LTD., priority 2015, dated 2021).

Experiments:
[1] = tested on: bladder cancer cell line T24; assay: Various human cancer cell growth inhibition test: T24; type: cell-based; settings: ATPlite, read-out: GI50 value (concentration necessary for inhibiting 50% of cell growth)
Excerpt: (§1) A breast cancer cell line BT-549 (obtained from American Type Culture Collection (ATCC)), a uterus cancer cell line C-33A (obtained from ATCC), an ovary cancer cell line PA-1 (obtained from ATCC), a large-cell lung cancer cell line NCI-H460 (obtained from ATCC), a small-cell lung cancer cell line NCI-H82 (obtained from ATCC), a kidney cancer cell line ACHN (obtained from ATCC), a pancreatic cancer cell line BxPC-3 (obtained from ATCC), a malignant melanoma cell line A375 (obtained from ATCC), a throat cancer cell line FaDu (obtained from ATCC), a medulloblastoma cell line Daoy (obtained from ATCC), a cutaneous epithelioid sarcoma cell line VA-ES-BJ (obtained from ATCC), a rhabdomyosarcoma cell line A-204 (obtained from ATCC), a prostate cancer cell line DU145 (obtained from ATCC), a bladder cancer cell line T24 (obtained from ATCC), a lymphoma cell line SR (obtained from ATCC), a neuroblastoma cell line SH-SY5Y (obtained from DS Pharma Biomedical Co., Ltd.), a liver cancer cell line HepG2 (obtained from DS Pharma Biomedical Co., Ltd.), a stomach cancer cell line HGC-27 (obtained from DS Pharma Biomedical Co., Ltd.), and a multiple myeloma cell line NCI-H929 (obtained from DS Pharma Biomedical Co., Ltd.) were used as human cancer cell lines.
(§2) Each cell line was cultured in a cell culture medium recommended by ATCC or DS Pharma Biomedical Co., Ltd. and inoculated at 0.3 to 5.0×10^3 cells/well to a 96-well plate. The cells were cultured overnight in a carbon dioxide incubator of 37° C. containing 5% carbon dioxide. The medium was replaced with a fresh medium on the next day, then replaced with a mixed solution of a DMSO solution of a test compound with varying concentrations and a culture medium (final DMSO concentration: 0.1%), and left standing in a carbon dioxide incubator (day 0). IV-361, IV-379, IV-3, IV-215, IV-299, IV-669, IV-1049, and palbociclib (for comparison) were used as test compounds. For a control group, DMSO was added instead of the DMSO solution of the test compound to a cell culture medium (final DMSO concentration: 0.1%).
(§3) After culture for a predetermined period, the ATP activity of BT-549, C-33A, PA-1, NCI-H460, NCI-H82, ACHN, BxPC-3, A375, FaDu, Daoy, VA-ES-BJ, A-204, DU145, T24, and SR was measured by using ATPlite (manufactured by PerkinElmer, Inc.). The ATP activity of SH-SY5Y, HepG2, HGC-27, and NCI-H929 was measured by using CellTiter-Glo (manufactured by Promega Corp.).
(§4) The rate of inhibition of cell growth (%) was calculated according to the expression given below. Specifically, in the case where the difference between the ATP activity before culture (day 0) and the ATP activity after culture in the test compound-administered group is the same as the difference between the ATP activity before culture (day 0) and the ATP activity after culture in the control group, the rate of inhibition of cell growth is 0%. Rate of inhibition of cell growth=(1−((ATP activity of the test compound-administered group after culture)−(ATP activity of the test compound-administered group on day 0))/((ATP activity of the control group after culture)−(ATP activity of the control group on day 0)))×100
(§5) The concentration of the test compound necessary for inhibiting 50% of cell growth (GI50 value) was calculated by using EXSUS (version 8.1.0, manufactured by CAC Exicare Corp.).

[2] = tested on: small-cell lung cancer cell line NCI-H82; assay: Various human cancer cell growth inhibition test: NCI-H82; type: cell-based; settings: ATPlite, read-out: GI50 value (concentration necessary for inhibiting 50% of cell growth)
Excerpt: as §1, §2, §3, §4, §5

[3] = tested on: liver cancer cell line HepG2; assay: Various human cancer cell growth inhibition test: HepG2; type: cell-based; settings: CellTiter-Glo, read-out: GI50 value (concentration necessary for inhibiting 50% of cell growth)
Excerpt: as §1, §2, §3, §4, §5

[4] = tested on: ovary cancer cell line PA-1; assay: Various human cancer cell growth inhibition test: PA-1; type: cell-based; settings: ATPlite, read-out: GI50 value (concentration necessary for inhibiting 50% of cell growth)
Excerpt: as §1, §2, §3, §4, §5

[5] = tested on: large-cell lung cancer cell line NCI-H460; assay: Various human cancer cell growth inhibition test: NCI-H460; type: cell-based; settings: ATPlite, read-out: GI50 value (concentration necessary for inhibiting 50% of cell growth)
Excerpt: as §1, §2, §3, §4, §5

[6] = tested on: pancreatic cancer cell line BxPC-3; assay: Various human cancer cell growth inhibition test: BxPC-3; type: cell-based; settings: ATPlite, read-out: GI50 value (concentration necessary for inhibiting 50% of cell growth)
Excerpt: as §1, §2, §3, §4, §5

[7] = tested on: cutaneous epithelioid sarcoma cell line VA-ES-BJ; assay: Various human cancer cell growth inhibition test: VA-ES-BJ; type: cell-based; settings: ATPlite, read-out: GI50 value (concentration necessary for inhibiting 50% of cell growth)
Excerpt: as §1, §2, §3, §4, §5

[8] = tested on: breast cancer cell line BT-549; assay: Various human cancer cell growth inhibition test: BT-549; type: cell-based; settings: ATPlite, read-out: GI50 value (concentration necessary for inhibiting 50% of cell growth)
Excerpt: as §1, §2, §3, §4, §5

[9] = tested on: multiple myeloma cell line NCI-H929; assay: Various human cancer cell growth inhibition test: NCI-H929; type: cell-based; settings: CellTiter-Glo, read-out: GI50 value (concentration necessary for inhibiting 50% of cell growth)
Excerpt: as §1, §2, §3, §4, §5

[10] = tested on: stomach cancer cell line HGC-27; assay: Various human cancer cell growth inhibition test: HGC-27; type: cell-based; settings: CellTiter-Glo, read-out: GI50 value (concentration necessary for inhibiting 50% of cell growth)
Excerpt: as §1, §2, §3, §4, §5

[11] = tested on: malignant melanoma cell line A375; assay: Various human cancer cell growth inhibition test: A375; type: cell-based; settings: A-375, ATPlite, read-out: GI50 value (concentration necessary for inhibiting 50% of cell growth)
Excerpt: as §1, §2, §3, §4, §5

lymphoma cell line SR = assay: Various human cancer cell growth inhibition test: SR; type: cell-based; settings: ATPlite, read-out: GI50 value (concentration necessary for inhibiting 50% of cell growth)
Excerpt: as §1, §2, §3, §4, §5

[12] = tested on: kidney cancer cell line ACHN; assay: Various human cancer cell growth inhibition test: ACHN; type: cell-based; settings: ATPlite, read-out: GI50 value (concentration necessary for inhibiting 50% of cell growth)
Excerpt: as §1, §2, §3, §4, §5

[13] = tested on: human large intestine cancer cell line (HCT-116) tumor; assay: In vivo tumor growth inhibition test for human large intestine cancer cell line by combined use with chemotherapeutic; settings: for Rate of suppression of tumor volume: IV-361 25 mg/kg/day oral, alone
[14] = tested on: Human keratinocytes (NHEK-Neo Pooled); assay: Human keratinocyte growth inhibition assay; type: cell-based; settings: 48 h, culture for 2 days, Cell Counting Kit-8
Description: The measurement of a human keratinocyte growth inhibitory effect was carried out by modifying the method of Schafer et al. (British Journal of Pharmacology, 159, 842 (2011)).
Human keratinocytes (NHEK-Neo Pooled, manufactured by Lonza Group AG) were cultured in KGM-Gold keratinocyte growth medium Bullet Kit (manufactured by Lonza Group AG) and inoculated at 2×10^3 cells/well to a 96-well plate. After overnight culture in a carbon dioxide incubator, a test compound dissolved in DMSO (final DMSO concentration: 0.1%) was added thereto and left standing in a carbon dioxide incubator. After culture for 2 days, the absorbance thereof was measured by using Cell Counting Kit-8 (manufactured by Dojindo Laboratories).
as §5, with “The rate of inhibition of cell growth at each concentration was calculated from the test compound concentration and the absorbance of Cell Counting Kit-8, and the” for “The”

SMILES | GI50 [1] [nM] | GI50 [2] [nM] | GI50 [3] [nM] | GI50 [4] [nM] | GI50 [5] [nM] | GI50 [6] [nM] | GI50 [8] [nM] | GI50 [9] [nM] | GI50 [10] [nM] | GI50 [11] [nM] | GI50 (lymphoma cell line SR) [nM] | GI50 [12] [nM] | GI50 [7] [nM] | rate of suppression of tumor volume in combined use with chemotherapeutic (5-FU, oxaliplatin or irinotecan) ([13]; 25 mg/kg IV-361 oral + 15 mg/kg 5-FU, 3 mg/kg oxaliplatin or 12.5 mg/kg irinotecan i.p., HCT-116 nude mice) | Rate of suppression of tumor volume ([13]; Table 52) [%] | Rate of suppression of tumor volume ([13]; Table 53) [%] | Rate of suppression of tumor volume ([13]; Table 54) [%] | GI50 [14] [nM]
Cc1cccc(Br)c1NC(=O)N1Cc2c(NC(=O)C3([Si](C)(C)C)CCC3)n[nH]c2C1(C)C [IV-299, N-(2-Bromo-6-methylphenyl)-6,6-dimethyl-3-[1-(trimethylsilyl)cyclobutanecarboxamido]-4,6-dihydropyrrolo[3,4-c]pyrazole-5 (1H)-carboxamide] | < 300 | < 300 | 300 to 1000 | < 300 | < 300 | < 300 | < 300 | < 300 | < 300 | < 300 | < 300 | < 300 | < 300 |  |  |  |  | 
Cc1ccc(F)cc1NC(=O)N1Cc2c(NC(=O)C3([Si](C)(C)C)CCC3)n[nH]c2C1(C)C [IV-361, N-(5-Fluoro-2-methylphenyl)-6,6-dimethyl-3-[1-(trimethylsilyl)cyclobutanecarboxamido]-4,6-dihydropyrrolo[3,4-c]pyrazole-5 (1H)-carboxamide] | < 300 | < 300 | 300 to 1000 | < 300 | < 300 | < 300 | < 300 | < 300 | < 300 | < 300 | < 300 | < 300 | < 300 | excellent rate of suppression of tumor volume | 46 | 46 | 20 | ≤ 500
Cc1ccc(C)c(NC(=O)N2Cc3c(NC(=O)C4([Si](C)(C)C)CCC4)n[nH]c3C2(C)C)c1 [IV-379, N-(2,5-Dimethylphenyl)-6,6-dimethyl-3-[1-(trimethylsilyl)cyclobutanecarboxamido]-4,6-dihydropyrrolo[3,4-c]pyrazole-5(1H)-carboxamide] | < 300 | < 300 | < 300 | < 300 | < 300 | < 300 | < 300 | < 300 | < 300 | < 300 | < 300 | < 300 | < 300 |  |  |  |  | ≤ 500

The next lines start with results.

GI50 [1] [nM] | GI50 [2] [nM] | GI50 [3] [nM] | GI50 [4] [nM] | GI50 [5] [nM] | GI50 [6] [nM] | GI50 [8] [nM] | GI50 [9] [nM] | GI50 [10] [nM] | GI50 [11] [nM] | GI50 (lymphoma cell line SR) [nM] | GI50 [12] [nM] | SMILES | GI50 [7] [nM] | rate of suppression of tumor volume in combined use with chemotherapeutic (5-FU, oxaliplatin or irinotecan) ([13]; 25 mg/kg IV-361 oral + 15 mg/kg 5-FU, 3 mg/kg oxaliplatin or 12.5 mg/kg irinotecan i.p., HCT-116 nude mice) | Rate of suppression of tumor volume ([13]; Table 52) [%] | Rate of suppression of tumor volume ([13]; Table 53) [%] | Rate of suppression of tumor volume ([13]; Table 54) [%] | GI50 [14] [nM]
< 300 | < 300 | < 300 | < 300 | < 300 | < 300 | < 300 | < 300 | < 300 | < 300 | < 300 | < 300 | Cc1ccc(C)c(NC(=O)N2Cc3c(NC(=O)C4([Si](C)(C)C)CCC4)n[nH]c3C2(C)C)c1F [IV-669, N-(2-Fluoro-3,6-dimethylphenyl)-6,6-dimethyl-3-[1-(trimethylsilyl)cyclobutanecarboxamido]-4,6-dihydropyrrolo[3,4-c]pyrazole-5(1H)-carboxamide] | < 300 |  |  |  |  | 
< 300 | < 300 | < 300 | < 300 | < 300 | < 300 | < 300 | < 300 | < 300 | < 300 | < 300 | < 300 | CC1(C)c2[nH]nc(NC(=O)C3([Si](C)(C)C)CCC3)c2CN1C(=O)Nc1c(F)ccc2ccoc12 [IV-1049, N-(6-Fluorobenzofuran-7-yl)-6,6-dimethyl-3-[1-(trimethylsilyl)cyclobutanecarboxamido]-4,6-dihydropyrrolo[3,4-c]pyrazole-5 (1H)-carboxamide] | < 300 |  |  |  |  | 
